Assays:
Assay type in all cases: in vivo
rice (Oryza sativa) = test: Test B flooded paddy test plant response
Summary of the method: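 Step one: raise plants to 2 leaves. Step two: flood pots 3 cm over the soil and apply compound into the water, keeping this depth. Step three: after 13–15 greenhouse days, score visually versus controls, 0–100, where 100 means complete control.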

[1] = test system: johnsongrass (Sorghum halepense); test: Test B pre-/postemergence plant response
Summary of the method: (§1)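 Visual scoring from 0 (no effect) to 100 (complete control) against untreated controls was done 13 to 15 days after greenhouse treatment. Chemicals were formulated in a surfactant-containing non-phytotoxic solvent and applied to soil preemergence or to 1- to 4-leaf (2-18 cm) plants postemergence.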

[2] = test system: large crabgrass (Digitaria sanguinalis); test: Test B pre-/postemergence plant response
Summary of the method: as §1

[3] = test system: velvetleaf (Abutilon theophrasti); test: Test B pre-/postemergence plant response
Summary of the method: as §1

soybean (Glycine max) = test: Test B pre-/postemergence plant response
Summary of the method: as §1

[4] = test system: pigweed (Amaranthus retroflexus); test: Test B pre-/postemergence plant response
Summary of the method: as §1

[5] = test system: catchweed bedstraw (Galium aparine); test: Test B pre-/postemergence plant response; conditions: Preemergence
Summary of the method: as §1

[6] = test system: Italian ryegrass (Lolium multiflorum); test: Test B pre-/postemergence plant response
Summary of the method: as §1

[7] = test system: bermudagrass (Cynodon dactylon); test: Test B pre-/postemergence plant response; conditions: for Bermudagrass plant response rating: 8 g ai/ha
Summary of the method: as §1

[8] = test system: goosegrass (Eleusine indica); test: Test B pre-/postemergence plant response
Summary of the method: as §1

[9] = test system: morningglory (Ipomoea coccinea); test: Test B pre-/postemergence plant response
Summary of the method: as §1

[10] = test system: lambsquarters (Chenopodium album); test: Test B pre-/postemergence plant response
Summary of the method: as §1

[11] = test system: giant foxtail (Setaria faberii); test: Test B pre-/postemergence plant response
Summary of the method: as §1

kochia (Kochia scoparia) = test: Test B pre-/postemergence plant response; conditions: for Kochia plant response rating: postemergence, 0-100 scale; for Plant response rating, Kochia: Postemergence
Summary of the method: as §1

[12] = Preemergence, 16 g ai/ha, scale 0 to 100 (0 no effect, 100 complete control)
[13] = Preemergence, 31 g ai/ha, 0 to 100 scale, 0 no effect, 100 complete control
[14] = Preemergence, 62 g ai/ha, scale 0 to 100
[15] = Preemergence, 8 g ai/ha, scale 0 to 100
[16] = Preemergence, 31 g ai/ha, scale 0 to 100 (0 no effect, 100 complete control)
[17] = Preemergence, 62 g ai/ha, 0 to 100 scale, 0 no effect, 100 complete control
[18] = Preemergence, scale 0 to 100 (0 no effect, 100 complete control)
[19] = 8 g ai/ha, postemergence, 0-100 scale
[20] = 16 g ai/ha, postemergence, 0-100 scale
[21] = Postemergence, 31 g ai/ha, scale 0 to 100
[22] = Postemergence, 62 g ai/ha, scale 0 to 100, 0 no effect, 100 complete control
[23] = Preemergence, 16 g ai/ha, scale 0 to 100
[24] = Postemergence, 16 g ai/ha, scale 0 to 100

In the case of `Cc1ccc(-c2ccc(Cl)cc2)cc1-c1c(O)cnn(C)c1=O` [Compound 46], the “Plant response rating, Rice” value (rice (Oryza sativa); Flood (flooded paddy test), 62 g ai/ha, scale 0 to 100, 0 no effect, 100 complete control) is reported as 0, the “Plant response rating, Rice” value (rice (Oryza sativa); Flood (flooded paddy test), 125 g ai/ha, scale 0 to 100, 0 no effect, 100 complete control) is reported as 20 and the “Plant response rating, Rice” value (rice (Oryza sativa); Flood (flooded paddy test), 250 g ai/ha, scale 0 to 100, 0 no effect, 100 complete control) is reported as 35. For the same molecule, the “Plant response rating, Rice” value (rice (Oryza sativa); Flood, 31 g ai/ha, scale 0 to 100) was 0, the “Plant response rating, Johnsongrass” value [1, 12] was 55 and the “Plant response rating, Johnsongrass” value [1, 13] was 85. For the same molecule, the “Plant response rating, Johnsongrass” value [1, 14] was 90, the “Plant response rating, Crabgrass, Large” value [2, 12] was 0 and the “Plant response rating, Crabgrass, Large” value [2, 13] was 60. For the same molecule, the “Plant response rating, Crabgrass, Large” value [2, 14] was 100, the “Crabgrass, Large plant response rating” value [2, 15] was 0 and the “Plant response rating, Velvetleaf” value [3, 12] was 0. For the same molecule, the “Plant response rating, Velvetleaf” value [3, 16] was 0, the “Plant response rating, Velvetleaf” value [3, 17] was 0 and the “Velvetleaf plant response rating” value [3, 15] was 0. For the same molecule, the “Plant response rating, Soybean” value (soybean (Glycine max); [12]) was 0, the “Plant response rating, Soybean” value (soybean (Glycine max); [16]) was 0 and the “Plant response rating, Soybean” value (soybean (Glycine max); [14]) was 0. For the same molecule, the “Soybean plant response rating” value (soybean (Glycine max); [15]) was 0, the “Plant response rating, Pigweed” value [4, 12] was 0 and the “Plant response rating, Pigweed” value [4, 16] was 60. For the same molecule, the “Plant response rating, Pigweed” value [4, 14] was 100, the “Pigweed plant response rating” value [4, 15] was 0 and the “Plant response rating, Galium” value ([5]; 16 g ai/ha, scale 0 to 100 (0 no effect, 100 complete control)) was 0. For the same molecule, the “Plant response rating, Galium” value ([5]; 31 g ai/ha, 0 to 100 scale, 0 no effect, 100 complete control) was 0, the “Plant response rating, Galium” value ([5]; 62 g ai/ha, scale 0 to 100) was 0 and the “Galium plant response rating” value ([5]; 8 g ai/ha, scale 0 to 100) was 0. The “Plant response rating, Ryegrass, Italian” value [6, 12] was 10, the “Plant response rating, Ryegrass, Italian” value [6, 16] was 40 and the “Plant response rating, Ryegrass, Italian” value [6, 14] was 100. The “Ryegrass, Italian plant response rating” value [6, 15] was 0, the “Bermudagrass plant response rating” value [7, 18] was 0 and the “Plant response rating, Bermudagrass” value [7, 12] was 20. The “Plant response rating, Bermudagrass” value [7, 13] was 85, the “Plant response rating, Bermudagrass” value [7, 14] was 100 and the “Plant response rating, Goosegrass” value [8, 12] was 100. For the same molecule, the “Plant response rating, Goosegrass” value [8, 13] was 100, the “Plant response rating, Goosegrass” value [8, 14] was 100 and the “Goosegrass plant response rating” value [8, 15] was 0. The “Plant response rating, Morningglory” value [9, 12] was 0, the “Plant response rating, Morningglory” value [9, 16] was 0 and the “Plant response rating, Morningglory” value [9, 14] was 0. For the same molecule, the “Morningglory plant response rating” value [9, 15] was 0, the “Plant response rating, Lambsquarters” value [10, 12] was 0 and the “Plant response rating, Lambsquarters” value [10, 13] was 0. For the same molecule, the “Plant response rating, Lambsquarters” value [10, 14] was 0, the “Lambsquarters plant response rating” value [10, 15] was 0 and the “Plant response rating, Foxtail, Giant” value [11, 12] was 15. The “Plant response rating, Foxtail, Giant” value [11, 13] was 95, the “Plant response rating, Foxtail, Giant” value [11, 14] was 100 and the “Foxtail, Giant plant response rating” value [11, 15] was 0.

With `CCc1cc(-c2ccc(Br)cc2)nn1-c1c(O)c(C)nn(C)c1=O` [Compound 74] the “Johnsongrass plant response rating” value [1, 19] was 98, the “Johnsongrass plant response rating” value [1, 20] was 98 and the “Plant response rating, Johnsongrass” value [1, 21] was 100. For the same molecule, the “Plant response rating, Johnsongrass” value [1, 22] was 100, the “Plant response rating, Johnsongrass” value [1, 16] was 90 and the “Plant response rating, Johnsongrass” value [1, 17] was 100. For the same molecule, the “Johnsongrass plant response rating” value [1, 15] was 70, the “Johnsongrass plant response rating” value [1, 23] was 85 and the “Crabgrass, Large plant response rating” value [2, 19] was 80. The “Plant response rating, Crabgrass, Large” value [2, 24] was 90, the “Plant response rating, Crabgrass, Large” value [2, 21] was 98 and the “Plant response rating, Crabgrass, Large” value [2, 22] was 100. For the same molecule, the “Plant response rating, Crabgrass, Large” value [2, 16] was 100, the “Plant response rating, Crabgrass, Large” value [2, 17] was 100 and the “Crabgrass, Large plant response rating” value [2, 15] was 65. For the same molecule, the “Crabgrass, Large plant response rating” value [2, 23] was 95, the “Velvetleaf plant response rating” value [3, 19] was 0 and the “Velvetleaf plant response rating” value [3, 20] was 0. The “Plant response rating, Velvetleaf” value [3, 21] was 0, the “Plant response rating, Velvetleaf” value [3, 22] was 0 and the “Plant response rating, Velvetleaf” value [3, 16] was 0. The “Plant response rating, Velvetleaf” value [3, 17] was 0, the “Velvetleaf plant response rating” value [3, 15] was 0 and the “Velvetleaf plant response rating” value [3, 23] was 0. For the same molecule, the “Soybean plant response rating” value (soybean (Glycine max); [19]) was 0, the “Soybean plant response rating” value (soybean (Glycine max); [20]) was 0 and the “Plant response rating, Soybean” value (soybean (Glycine max); [21]) was 0. For the same molecule, the “Plant response rating, Soybean” value (soybean (Glycine max); [22]) was 0, the “Plant response rating, Soybean” value (soybean (Glycine max); [16]) was 0 and the “Plant response rating, Soybean” value (soybean (Glycine max); [17]) was 0. The “Soybean plant response rating” value (soybean (Glycine max); [15]) was 0, the “Soybean plant response rating” value (soybean (Glycine max); [23]) was 0 and the “Pigweed plant response rating” value [4, 19] was 0. For the same molecule, the “Pigweed plant response rating” value [4, 20] was 0, the “Plant response rating, Pigweed” value [4, 21] was 0 and the “Plant response rating, Pigweed” value [4, 22] was 0. The “Plant response rating, Pigweed” value [4, 16] was 0, the “Plant response rating, Pigweed” value [4, 17] was 20 and the “Pigweed plant response rating” value [4, 15] was 0. For the same molecule, the “Pigweed plant response rating” value [4, 23] was 0, the “Plant response rating, Galium” value ([5]; 31 g ai/ha, scale 0 to 100 (0 no effect, 100 complete control)) was 0 and the “Plant response rating, Galium” value ([5]; 62 g ai/ha, 0 to 100 scale, 0 no effect, 100 complete control) was 0. For the same molecule, the “Galium plant response rating” value ([5]; 8 g ai/ha, scale 0 to 100) was 0, the “Galium plant response rating” value ([5]; 16 g ai/ha, scale 0 to 100) was 0 and the “Ryegrass, Italian plant response rating” value [6, 19] was 98. The “Ryegrass, Italian plant response rating” value [6, 20] was 100, the “Plant response rating, Ryegrass, Italian” value [6, 21] was 100 and the “Plant response rating, Ryegrass, Italian” value [6, 22] was 100. The “Plant response rating, Ryegrass, Italian” value [6, 16] was 100, the “Plant response rating, Ryegrass, Italian” value [6, 17] was 100 and the “Ryegrass, Italian plant response rating” value [6, 15] was 60. The “Ryegrass, Italian plant response rating” value [6, 23] was 98, the “Bermudagrass plant response rating” value ([7]; postemergence, 0-100 scale) was 20 and the “Plant response rating, Bermudagrass” value [7, 24] was 85. The “Plant response rating, Bermudagrass” value [7, 21] was 95, the “Plant response rating, Bermudagrass” value [7, 22] was 98 and the “Bermudagrass plant response rating” value [7, 18] was 100. The “Plant response rating, Bermudagrass” value [7, 12] was 100, the “Plant response rating, Bermudagrass” value [7, 16] was 100 and the “Plant response rating, Bermudagrass” value [7, 17] was 100. The “Kochia plant response rating” value (kochia (Kochia scoparia); 8 g ai/ha) was 0, the “Kochia plant response rating” value (kochia (Kochia scoparia); 16 g ai/ha) was 0 and the “Plant response rating, Kochia” value (kochia (Kochia scoparia); 31 g ai/ha, scale 0 to 100) was 0. For the same molecule, the “Plant response rating, Kochia” value (kochia (Kochia scoparia); 62 g ai/ha, scale 0 to 100, 0 no effect, 100 complete control) was 0, the “Goosegrass plant response rating” value [8, 19] was 60 and the “Goosegrass plant response rating” value [8, 20] was 65. For the same molecule, the “Plant response rating, Goosegrass” value [8, 21] was 75, the “Plant response rating, Goosegrass” value [8, 22] was 85 and the “Plant response rating, Goosegrass” value [8, 16] was 100. For the same molecule, the “Plant response rating, Goosegrass” value [8, 17] was 100, the “Goosegrass plant response rating” value [8, 15] was 95 and the “Goosegrass plant response rating” value [8, 23] was 98. The “Morningglory plant response rating” value [9, 19] was 0, the “Morningglory plant response rating” value [9, 20] was 0 and the “Plant response rating, Morningglory” value [9, 21] was 0. For the same molecule, the “Plant response rating, Morningglory” value [9, 22] was 0, the “Plant response rating, Morningglory” value [9, 16] was 0 and the “Plant response rating, Morningglory” value [9, 17] was 0. The “Morningglory plant response rating” value [9, 15] was 0, the “Morningglory plant response rating” value [9, 23] was 0 and the “Lambsquarters plant response rating” value [10, 19] was 0. The “Lambsquarters plant response rating” value [10, 20] was 0, the “Plant response rating, Lambsquarters” value [10, 21] was 0 and the “Plant response rating, Lambsquarters” value [10, 22] was 0. The “Plant response rating, Lambsquarters” value [10, 16] was 0, the “Plant response rating, Lambsquarters” value [10, 17] was 20 and the “Lambsquarters plant response rating” value [10, 15] was 0. For the same molecule, the “Lambsquarters plant response rating” value [10, 23] was 0, the “Foxtail, Giant plant response rating” value [11, 19] was 80 and the “Plant response rating, Foxtail, Giant” value [11, 24] was 85. The “Plant response rating, Foxtail, Giant” value [11, 21] was 95, the “Plant response rating, Foxtail, Giant” value [11, 22] was 98 and the “Plant response rating, Foxtail, Giant” value [11, 16] was 100. For the same molecule, the “Plant response rating, Foxtail, Giant” value [11, 17] was 100, the “Foxtail, Giant plant response rating” value [11, 15] was 80 and the “Foxtail, Giant plant response rating” value [11, 23] was 98.
